Columns and labels:
in vitro = conditions: male, Sprague-Dawley, rat, microsomes, pH 7.4
[1] = rat, microsomes
HEK293T cells = conditions: human

| Compound | half-life (in vitro) [h] | Intrinsic clearance [1] [µL/min/mg] | Cell density relative to the effect of vehicle (DMSO) (HEK293T cells) [%] |
| --- | --- | --- | --- |
| O=C(/C=C/c1ccc(F)cc1)N1CCCCC1 [Compound 19, (E)‐3‐(4‐Fluorophenyl)‐1‐(piperidin‐1‐yl)prop‐2‐en‐1‐one] | 1.42 ± 0.3 | 85 ± 20 |  |
| O=C(/N=N/c1ccc(F)cc1)N1CCCCC1 [Compound 18, (E)‐((4‐Fluorophenyl)diazenyl)(piperidin‐1‐yl)methanone] | 1.22 ± 0.2 | 97 ± 15 |  |
| C=CCN1CC[C@]23c4c5ccc(O)c4O[C@H]2C(=O)CC[C@@]3(O)[C@H]1C5 [naloxone] |  |  | 84±5 |
